Laboratory results taken from patent US10781470B2, “Diagnosis and treatment of incipient diabetes” (priority 2015, dated 2020).

System: stool alkaline phosphatase (AP)
Experiment: Stool alkaline phosphatase assay in presence of AP isoform inhibitors
Details: stool supernatant; for inhibition of the AP activity in the stool: inhibitor 10 mM, pNPP substrate
Experimental: Homogenization of stool: The supernatant of a homogenized stool suspension was used for IAP assay. A small amount of stool (milligrams) was measured and then the ‘stool dilution buffer’ (10 mM (millimolar) Tris-HCl, pH 8.0, 1 mM magnesium chloride, 10 μM (micromolar) zinc chloride) at a defined ratio was added. Usually, 50 μl (microliter) of stool dilution buffer was added to 1 mg of stool. The sample was vigorously vortexed to prepare a homogenized stool suspension, which was then centrifuged at 10,000×g for 20 min, and the supernatant containing IAP was collected and assayed for IAP concentration.
Alkaline Phosphatase Assay. The stool supernatant was assayed for alkaline phosphatase (AP) following an established protocol using the automatic biochemistry analyzer mentioned above (Nanjing, Jiangsu, China). In brief, 20 of supernatant was added to 1 ml of enzyme assay buffer (1.25 M diethanolamine (DEA) buffer, pH 10.2, 0.6 mM magnesium chloride) containing 10 mM p-nitrophenyl phosphate (pNPP), and the reaction mixture was incubated for one min at 37° C. followed by measuring the AP concentration by the analyzer pre-calibrated with AP standards. To determine the major isoform among stool APs, prior to assaying for AP activity an aliquot of stool sample was treated for 10 min with L-phenylalanine (L-Phe, 10 mM final conc.), a specific inhibitor of LAP, and another aliquot with L-homoarginine (L-Arg, 10 final conc.), an inhibitor of tissue non-specific alkaline phosphatase (TNAP). Each aliquot treated with an inhibitor was then mixed with the reaction buffer containing an equal concentration (10 mM) of the respective inhibitor, and assayed for AP activity using the analyzer. […] All AP assays were performed by a single laboratory technologist who was blinded to the diagnoses of participants. […]
Stool samples of non-diabetic healthy controls and T2DM patients were homogenized in a stool dilution buffer followed by centrifuging and collection of supernatant. […] Statistics: Values are expressed as mean+/−SEM. […]

| SMILES | inhibitory effect on the stool AP activity (either group (healthy controls and T2DM patients)) | inhibition of the AP activity in the stool (total diabetic (T2DM) population) | inhibition of the AP activity in the stool (total healthy population) |
| --- | --- | --- | --- |
| N=C(N)NCCCC[C@H](N)C(=O)O [L-Arg, L-homoarginine] | no inhibitory effect |  |  |
| N[C@@H](Cc1ccccc1)C(=O)O [L-Phe, L-phenylalanine] |  | approx. 70% | approx. 80% |
